The assay has as its target T1, Apelin receptor (Homo sapiens, UniProt P35414).
T1 sequence (P35414 whole entry): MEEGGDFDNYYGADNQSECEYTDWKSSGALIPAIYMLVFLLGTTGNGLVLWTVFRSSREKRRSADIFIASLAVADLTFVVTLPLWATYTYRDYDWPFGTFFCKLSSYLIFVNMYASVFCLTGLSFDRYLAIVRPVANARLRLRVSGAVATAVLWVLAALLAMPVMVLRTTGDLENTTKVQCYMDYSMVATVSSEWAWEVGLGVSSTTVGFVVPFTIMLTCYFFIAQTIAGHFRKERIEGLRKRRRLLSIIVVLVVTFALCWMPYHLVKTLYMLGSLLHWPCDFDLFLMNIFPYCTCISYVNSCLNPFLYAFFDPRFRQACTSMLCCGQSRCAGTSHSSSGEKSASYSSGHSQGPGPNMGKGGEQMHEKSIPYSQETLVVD
In words: Intracellular cAMP Accumulation Assay. The protocol:
HEK293 cells stably expressing human APJ receptor were used to assess the activity of compounds. Cultured cells were detached and resuspended in the cAMP Homogeneous Time-Resolved Fluorescence (HTRF) assay buffer (Cisbio cat; #62AM4PEJ). […] Serial dilutions of a compound together with assay buffer containing […] and 2 μM forskolin were added to each well containing 5,000 cells and incubated for 30 minutes at room temperature. Subsequently, cAMP D2 reagent was added in the lysis buffer followed by the EuK antibody (Cisbio; cat #62AM4PEJ) and incubated for 60 min. The fluorescence emission ratio was measured using fluorometer. The intracellular cAMP concentrations (compound-stimulated inhibition of forskolin-mediated cAMP production) were calculated by extrapolation from a standard curve using known cAMP concentrations. The EC50 values were obtained by fitting the data to a sigmoidal concentration-response curve with variable slope.

The structures appear in SMILES notation.

With `CCCCC1NC(=O)C(S(=O)(=O)c2ccc(-c3ccnc(F)c3C)cc2)=C(O)N1[C@@H](CC)c1cccc(OC)c1` (stereo partly specified) [US10508104, Example 169], the EC50 – broadly, the concentration that produces a half-maximal response – is “in the range around 5 nM”.

For the origin of these results see BindingDB's records for patent US10508104 (Bristol Myers Squibb, 2019).
